Activity calls are given as the source filed them. No cut-off for these calls is given here.
Assays:
RAW264.7 [1] = assay: Antiinflammatory activity in mouse RAW264.7 cells assessed as inhibition of LPS-induced nitric oxide production at 100 uM after 24 hrs by Griess reagent method relative to control; type: functional, cell-based
RAW264.7 [2] = assay: Antiinflammatory activity in mouse RAW264.7 cells assessed as inhibition of LPS-induced TNFalpha production at 100 uM after 24 hrs by ELISA relative to control; type: functional, cell-based

| Compound | Activity (RAW264.7 [1]) | Activity (RAW264.7 [2]) |
| --- | --- | --- |
| C/C(=C\Cc1c(O)cc(C)c(C=O)c1O)CC[C@@]1(C)[C@H](C)CCC(=O)[C@@H]1C | Active | – |
| C/C(=C\Cc1c(O)c(Cl)c(C)c(C=O)c1O)CC/C=C(\C)[C@@H]1CC(=O)C(C)(C)O1 | Active | Active |
| CC(/C=C/[C@@]1(C)[C@H](C)CCC(=O)[C@@H]1C)=C\Cc1c(O)c(Cl)c(C)c(C=O)c1O | Active | Active |
| C/C(=C\Cc1c(O)c(Cl)c(C)c(C=O)c1O)CC[C@@]1(C)[C@H](C)CCC(=O)[C@@H]1C | Active | – |

From ChEMBL document CHEMBL1152326, “Anti-inflammatory sesquiterpenoids from a sponge-derived Fungus Acremonium sp” (J Nat Prod, 2009)
